According to patent US20240382473A1, “Combination Therapies for Treatment of Myelodysplastic Syndrome” (priority 2019, published 2024):

Key:
[1] = tested on: luciferase expressing MV4-11 model; experiment: Luciferase expressing MV4-11 AML xenograft model; type: in vivo; details: alvocidib alone
circulating blasts = details: three-day dosing, in the clinic; cited from earlier work
OCI AML3 xenograft model = experiment: OCI AML3 xenograft model; type: in vivo
THP-1 AML model = experiment: THP-1 AML xenograft model; type: in vivo; details: alvocidib alone
clinical = details: human, in vivo; for AUC(0-t): 75 mg/m2, AUC(0-27); for Cmax: 75 mg/m2, Cmax; for Tmax: 75 mg/m2, Tmax
Text: Plasma PK analyses for alvocidib and known metabolites, if any, and dose proportionality will be determined on Days 8 and 9 (for patients receiving alvocidib following DEC) or Days 10 and 11 (for patients receiving alvocidib following AZA) of Cycle 1 in all patients enrolled in the study, according to Table 5 or Table 6: […]

[2] = tested on: MCL-1 and NOXA expression in MV-4-11 cells; experiment: Western blot of NOXA and MCL-1 in MV-4-11 cells, alvocidib and azacytidine; type: cell-based; details: with azacytidine
Text: FIG. 28A is an overview of an experimental used to evaluate an interaction between alvocidib and azacytidine with regard to MCL-1 and NOXA expression. FIG. 28B is a Western blot showing NOXA and MCL-1 levels in cells treated according to the experiment summarized in FIG. 28A at indicated drug concentrations.

[3] = tested on: RNA pol II phosphorylation and MCL-1 expression in MV-4-11 AML cells; experiment: Flow cytometry of RNA pol II phosphorylation and MCL-1 expression in MV-4-11 AML cells; type: cell-based; details: 24-hour treatment
MDS BMMC's = experiment: Cell viability following 48 hours treatment (FIGS. 26A/26B; IC50 in MDS BMMC's); type: cell-based
Text: (§1) Additionally, an assay has been tested in bone marrow mononuclear cells (BMMCs) from AML and MDS patients to examine MCL-1 dependency prior to therapy with alvocidib. […] Combination studies are currently under investigation to determine whether enhanced anti-cancer activity is observed through pharmacologic downregulation of MCL-1 via CDK9 inhibition by alvocidib and upregulation of the MCL-1 antagonist NOXA after HMA exposure.
FIGS. 26A and 26B are scatter plots showing cell viability following 48 hours treatment at indicated concentrations of azacytidine (alone) or alvocidib (alone). FIG. 26A is a plot of cell viability following 48-hour treatment against indicated concentrations of azacitidine. […] FIG. 26B is a plot of cell viability following 48-hour treatment against indicated concentrations of alvocidib.

CD34+ MDS BMMNC [4] = experiment: Caspase-Glo 3/7 apoptotic activity in CD34+ MDS BMMNC (Example 17 efficacy study); type: cell-based, human; details: azacitidine 100 nM 24 hours, alvocidib 100 nM 24 hours
Procedure: CD34^+ cells were isolated by CD34 MicroBead Kit (Miltenyi Biotec) and cultured in StemSpan™ SFEM II with StemSpan™ CD34^+ Expansion Supplement (STEMCELL Technologies). […] Apoptotic activity was assessed by Caspase-Glo® 3/7 assay (Promega).

AML patients = experiment: NOXA priming of pre-treatment bone marrow versus response to alvocidib in AML patients; type: in vivo, human; details: patients with pre-treatment bone marrow NOXA priming greater than or equal to 40%
Text: Furthermore, high NOXA Priming (MCL-1 dependence) is predictive of alvocidib sensitivity in AML patients. […] FIG. 16A is a box-plot showing that high NOXA priming (MCL-1 dependence) is predictive of alvocidib sensitivity in acute myeloid leukemia (AML) patients. The box-plot plots NOXA priming in complete remission and no response patient bone marrow samples taken from patients prior to being treated with alvocidib. […] NR=no response). The box-plot plots NOXA priming in complete remission and no response patient bone marrow samples taken from patients prior to being treated with 7+3 chemotherapy.

[5] = tested on: pRpb1 and MCL1 in primary MDS BMMCs; experiment: pRpb1 and MCL1 levels in MDS patient cells after alvocidib; type: cell-based, human; details: relative to DMSO
Text: It has been shown that alvocidib reduces RNA pol II phosphorylation and MCL-1 expression in vitro. […] Phospho-RNA polymerase (pRpb1) and MCL-1 (MCL1) levels are decreased after alvocidib treatment in MDS patient cells (FIG. 23). Levels are indicated as a percent relative to levels measured for a DMSO treated sample. Numbers in parenthesis represent concentrations in nM for each alvocidib (Alvo) treatment.
as §1, with “alvocidib. Approximately 25% of AML patient BMMCs and 60% of MDS patient BMMCs are MCL-1 dependent. Azacitidine and decitabine increased NOXA expression in AML cell line models.” for “alvocidib.”

[6] = tested on: MCL-1 expression in MV4-11 cells; experiment: Western blot of MCL-1 protein in MV4-11 cells treated with alvocidib; type: cell-based
Text: FIG. 9 is an illustration of a proposed mechanism by which alvocidib inhibits expression of MCL-1 by inhibiting CDK9.

[7] = tested on: NOXA and MCL-1 expression in CD34+ MDS BMMNC; experiment: Pharmacodynamic marker study, Western blot NOXA/MCL-1 in CD34+ MDS BMMNC; type: cell-based, human; details: Patient 0219; azacitidine 0.3 or 0.6 μM 24 hours, then alvocidib 0.1 μM 6 hours
Procedure: A pharmacodynamic maker study was performed for azaditidine and alvocidib using MDS patient-derived BMMNC from Cureline. CD34^+ cells were isolated by CD34 MicroBead Kit (Miltenyi Biotec) and cultured in StemSpan™ SFEM II with StemSpan™ CD34^+ Expansion Supplement (STEMCELL Technologies). […] Protein was extracted using RIPA buffer with protease and phosphatase inhibitor cocktail. Protein expression was assessed by Western blot using NOXA (CST, Cat #14766S), MCL-1(CST, Cat #392245) and β-actin (CST, Cat #4967L) antibodies. Apoptotic activity was assessed by Caspase-Glo® 3/7 assay (Promega).

MOLM13 xenograft model = experiment: MOLM13 xenograft model, tumor volume and survival; type: in vivo; details: aggressive daily dosing, tumor bearing mice
Procedure: FIGS. 31A and 31B show results from sequential dosing of alvocidib and HMAs in a MOLM13 model for MDS/sAML. HMA dosing sensitized AML cells to sequential dosing and improved survival in vivo. Alvocidib, azacytidine, and decitabine activity were assessed in the MOLM13 xenograft model. FIG. 31A is a plot of tumor volume over time and FIG. 31B is a plot of percent survival over time. Mice were dosed with alvocidib, qdx2, and/or an HMA, qdx3 on a weekly basis. Doses are indicated in mg/kg (mpk).
[…] show results from aggressive daily dosing of alvocidib and decitabine in the MOLM13 model. Tumor bearing mice were treated. Doses and schedule are indicated. FIG. 32A plots tumor volume following treatment and FIG. 32B plots body weight following treatment.

MV-4-11 cells = experiment: MCL-1 dependency assay (T-MS1, Dioc6) in MV-4-11 cells; type: cell-based; details: for MCL-1 dependency versus DMSO controls: 24 hours
CD34+ MDS BMMNC [8] = experiment: Caspase-Glo 3/7 apoptotic activity in CD34+ MDS BMMNC (Example 16); type: cell-based, human; details: then DMSO or alvocidib 0.1 μM 6 hours
Procedure: A pharmacodynamic maker study was performed for azaditidine and alvocidib using MDS patient-derived BMMNC from Cureline. CD34^+ cells were isolated by CD34 MicroBead Kit (Miltenyi Biotec) and cultured in StemSpan™ SFEM II with StemSpan™ CD34^+ Expansion Supplement ([…] Technologies). Cells were seeded in 6-well plates and treated with DMSO or azacitidine (0.3 or 0.6 μM) for 24 hours. Following that, DMSO or alvocidib (0.1 μM) was sequentially added, and the cells were incubated for an additional 6 hours. Protein was extracted using RIPA buffer with protease and phosphatase inhibitor cocktail. Protein expression was assessed by Western blot using NOXA (CST, Cat #14766S), MCL-1(CST, Cat #392245) and β-actin (CST, Cat #4967L) antibodies. Apoptotic activity was assessed by Caspase-Glo® 3/7 assay (Promega).

[9] = tested on: NOXA expression in MV-4-11 AML cells / MOLM13 cells; experiment: Western blot for NOXA expression in AML cell lines treated with HMAs; type: cell-based
Procedure: (§2) In the decitabine experiments (FIGS. 24 and 36), the MV-4-11 AML cell line and MOLM13 cell line model for secondary AML (prior MDS) were used. MV-4-11 AML cells (or MOLM13 cells as indicated) were treated with indicated concentrations of decitabine for indicated times, and protein was assessed by Western blot for NOXA expression. […] FIGS. 24A and 24C are Western blots and FIG. 24B is a bar graph of mRNA concentrations. […] The Western blot was prepared from a MOLM13 xenograft treated with decitabine at 1 mg/kg IP for 24 hours.
In the azacitidine experiments (FIG. 25), MV-4-11 AML cells were treated with indicated concentrations of azacitidine for 24 hours and protein assessed by Western blot for NOXA expression.

[10] = tested on: MDS patient-derived BMMCs (blasts); experiment: T-MS1 based MCL-1 dependency assay on MDS patient blasts; type: cell-based, human
Procedure: To determine the patients' cells' dependency on MCL-1 anti-apoptotic protein for survival, the MCL-1 binding protein, MS I with N-terminal modifications for improved cell penetrance was utilized. The modified peptide is referred to as T-MS1. When added to cells, T-MS1 crosses the plasma membrane and antagonizes MCL-I, leading to mitochondrial outer membrane […] (MOMP) formation and subsequently, depolarization of the mitochondria. Mitochondrial potential was assessed using the cationic dye, DiOC2(3), which accumulates in negatively-charged, healthy mitochondria. Fresh or previously frozen MDS bone marrow cells were treated with azacitidine or DMSO control in media containing RPMI+10% FBS+pen/strep for 48 hours prior to being interrogated with T-MS1. After blocking and staining with antibody cocktail to gate on MDS blasts, T-MS1 was added and cells were incubated for 30 minutes at 37° C. After T-MS1 treatment, cells were washed and stained with cationic dye, Dioc6, for 90 minutes to assess mitochondrial depolarization via flow cytometric analysis. Priming % was calculated using the formula: […]
For concordance with prior priming values, an additional calibration factor of 1.6 was applied to patient priming values.
To determine the patients' cells' MCL-1 dependency following treatment with azacitidine, MDS patient-derived BMMCs were treated with DMSO, 0.3 μM azacitidine, 1 μM azacitidine or 2.5 μM azacitidine for 48-72 hours before being assessed by the MCL-1 dependency assay.

[11] = tested on: NOXA expression in MOLM13 xenograft; experiment: Western blot for NOXA from MOLM13 xenograft treated with decitabine; type: in vivo; details: decitabine 1 mg/kg IP, 24 hours
Procedure: as §2

SMILES: CN1CC[C@H](c2c(O)cc(O)c3c(=O)cc(-c4ccccc4Cl)oc23)[C@H](O)C1 [alvocidib]
- total flux count [1]: complete abrogation
- average reduction of circulating blasts (circulating blasts): greater than 75%
- tumor growth inhibition (% TGI) (OCI AML3 xenograft model): 55.0%
- TGI (THP-1 AML model): 30.8%
- decrease of AUC going from cohort 4 to cohort 5 (clinical): 47.6%
- decrease of Cmax going from cohort 4 to cohort 5 (clinical): 15.4%
- AUC(0-t) (clinical): 3410 ng·h/mL
- AUC(0-t) (clinical; Mean): 4080 ng·h/mL
- Cmax (clinical): 868 ng/mL
- Cmax (clinical; Mean): 924 ng/mL
- half-life (clinical; 75 mg/m2, T1/2): 8.23 h
- half-life (clinical; 75 mg/m2, T1/2, Mean): 8 h
- Tmax (clinical): 0 h
- Tmax (clinical; Mean): 0 h
- MCL-1 and NOXA levels (Western blot) [2]: inhibits upregulation of MCL-1 by azacytidine without affecting NOXA induction
- inhibition of RNA pol II phosphorylation and MCL-1 expression [3]: dose-dependent
- IC50 (MDS BMMC's): ~100 nM
- increase of apoptotic activity versus DMSO (CD34+ MDS BMMNC [4]; Patient 0219): 31%
- increase of apoptotic activity versus DMSO (CD34+ MDS BMMNC [4]; Patient 1115 (high-risk MDS)): 240%
- complete recovery rate (AML patients): 100%
- Phospho-RNA polymerase (pRpb1) and MCL-1 (MCL1) levels [5]: decreased
- Phospho-RNA polymerase (pRpb1) and MCL-1 (MCL1) levels ([5]; listed as Alvocidib): dose dependent reduction
- MCL-1 protein in response to alvocidib (Western blot) ([6]; FIG. 8 left panel): dose-dependent decrease
- duration of knock-down of MCL-1 ([6]; MV4-11 cells, 80 nM alvocidib): exceeds 96 hours
- NOXA and MCL-1 protein expression (Western blot) versus DMSO [7]: suppressed MCL-1 expression
- tumor growth inhibition (% TGI) (MOLM13 xenograft model): 75.8%

SMILES: Nc1ncn([C@@H]2O[C@H](CO)[C@@H](O)[C@H]2O)c(=O)n1 [azacitidine]
- MCL-1 dependency versus DMSO controls (MV-4-11 cells): sensitized MV4-11 cells to MCL-1 dependent apoptosis
- MCL-1 dependency versus DMSO controls (MV-4-11 cells; listed as azacytidine): increased MCL-1 dependency
- MCL-1 dependence (MV-4-11 cells; azacitidine 2.5 μM): 29.6%
- increase in apoptotic activity versus DMSO (CD34+ MDS BMMNC [8]; azacitidine 0.3 μM 24 hours): 52%
- increase in apoptotic activity versus DMSO (CD34+ MDS BMMNC [8]; azacitidine 0.6 μM 24 hours): 62%
- NOXA expression in AML cell line models [9]: increased
- NOXA expression (Western blot), azacitidine ([9]; MV-4-11 AML cells, 24 hours): dose-dependent increase
- IC50 (MDS BMMC's): ~1000 nM
- increase of apoptotic activity versus DMSO (CD34+ MDS BMMNC [4]; Patient 0219): 20%
- increase of apoptotic activity versus DMSO (CD34+ MDS BMMNC [4]; Patient 1115 (high-risk MDS)): 35%
- NOXA and MCL-1 protein expression (Western blot) versus DMSO [7]: induced NOXA expression
- priming trend across MDS bone marrow samples ([10]; 0.3, 1 and 2.5 μM azacitidine): dose-dependent increase in priming
- percent priming ([10]; Patient 0216's blasts, 1 μM azacitidine): 115.3%
- percent priming ([10]; Patient 0216's blasts, 2.5 μM azacitidine): 132.1%
- percent priming ([10]; Patient 0515's blasts, 1 μM azacitidine): 82.1%
- percent priming ([10]; Patient 0515's blasts, 2.5 μM azacitidine): 81.6%
- percent priming ([10]; Patient 1060's blasts, 72-hour, 0.3 μM azacitidine): 45.8%
- percent priming ([10]; Patient 1060's blasts, 72-hour, 1 μM azacitidine): 60.9%
- maximum increase in priming ([10]; one patient sample): 35%

SMILES: Nc1ncn([C@H]2C[C@H](O)[C@@H](CO)O2)c(=O)n1 [decitabine]
- NOXA expression in AML cell line models [9]: increased
- NOXA expression (Western blot), decitabine ([9]; MV-4-11 AML cells or MOLM13 cells, indicated times): time-dependent increase
- NOXA expression (Western blot) in xenograft [11]: increase in NOXA expression
- tumor growth inhibition (% TGI) (MOLM13 xenograft model): 58.6%
